Results from US11116740B2, “Methods for use in support of planned supplement and food ingredient products for diagnosis and treatment of metabolic syndrome” (priority 2015, dated 2021).

Test: Serum fatty acid metabolomics (UPLC-MS/MS), feeding study
Experimental: This study examined global metabolic profiles in six dolphins (“Group A dolphins”). The dolphins lived in netted enclosures within San Diego Bay. The dolphins started on a 100% capelin diet. Group A dolphins were fed one-third of their daily diet in the morning after their routine overnight fast and 2h postprandial, in-water, and trained blood samples were drawn (typically near 10:00 a.m.). An additional four dolphins (“Group C dolphins”) were fed the capelin diet.
Two hour post-prandial samples were collected from the dolphins at baseline (week 0) and at four time points following the switch to the modified diet: 6, 12, 18, and 24 weeks. Routine monthly samples collected from four reference dolphins that were housed in the same environment as the Group A dolphins were assessed for glucose, triglycerides, ferritin, and percent serum fatty acids.
Sample Preparation: Samples were prepared using the automated MicroLab STAR® system from Hamilton Company. Several recovery standards were added prior to the first step in the extraction process for QC purposes. Proteins were precipitated with methanol under vigorous shaking for 2 min (Glen Mills GenoGrinder 2000) followed by centrifugation. The resulting extract was divided into five fractions: two for analysis by two separate reverse phase (RP)/UPLC-MS/MS methods with positive ion mode electrospray ionization (ESI), one for analysis by RP/UPLC-MS/MS with negative ion mode ESI, one for analysis by HILIC/UPLC-MS/MS with negative ion mode ESI, and one sample was reserved. Samples were placed briefly on a TurboVap® (Zymark) to remove the organic solvent. The sample extracts were stored overnight under nitrogen before preparation for analysis.
Ultrahigh Performance Liquid Chromatography-Tandem Mass Spectroscopy (UPLC-MS/[…]): Each of four methods utilized a Waters ACQUITY ultra-performance liquid chromatography (UPLC) and a Thermo Scientific Q-Exactive high resolution/accurate mass spectrometer interfaced with a heated electrospray ionization (HESI-II) source and Orbitrap mass analyzer operated at 35,000 mass resolution. A sample extract was dried, then reconstituted in solvents compatible to each of the four methods. Each reconstitution solvent contained a series of standards at fixed concentrations to ensure injection and chromatographic consistency. A first aliquot was analyzed using acidic positive ion conditions, chromatographically optimized for more hydrophilic compounds. In this method, the extract was gradient eluted from a C18 column (Waters UPLC BEH C18-2. 1×100 mm, 1.7 μm) using water and methanol, containing 0.05% perfluoropentanoic acid (PFPA) and 0.1% formic acid (FA). A second aliquot was also analyzed using acidic positive ion conditions, however it was chromatographically optimized for more hydrophobic compounds. In this method, the extract was gradient eluted from the same afore mentioned C18 column using methanol, acetonitrile, water, 0.05% PFPA and 0.01% FA and was operated at an overall higher organic content. A third aliquot was analyzed using basic negative ion optimized conditions using a separate dedicated C 18 column. The basic extracts were gradient eluted from the column using methanol and water, however with 6.5 mM Ammonium Bicarbonate at pH 8. […] The MS analysis alternated between MS and data-dependent MSn scans using dynamic exclusion. The scan range varied slighted between methods but covered 70-1000 m/z.
Data Extraction and Compound Identification: Raw data was extracted, peak-identified and QC processed using Metabolon's hardware and software. The systems were based on a web-service platform utilizing Microsoft's .NET technologies, which ran on high-performance application servers and fiber-channel storage arrays in clusters to provide active failover and load-balancing. Compounds were identified by comparison to library entries of purified standards or recurrent unknown entities.

[1] = bottlenose dolphin (Tursiops truncatus), in vivo, 6 weeks
[2] = bottlenose dolphin (Tursiops truncatus), in vivo, 12 weeks
[3] = bottlenose dolphin (Tursiops truncatus), in vivo, 18 weeks
[4] = bottlenose dolphin (Tursiops truncatus), in vivo, 24 weeks
[5] = Group A dolphins, modified diet, proportional to value at outset of study

Molecule	serum concentration 6 wk / 0 wk (in vivo)	serum concentration 12 wk / 0 wk (in vivo)	serum concentration 18 wk / 0 wk (in vivo)	serum concentration 24 wk / 0 wk (in vivo)	other results
CCCCCCCC/C=C\CCCCCCCCCCCC(=O)O [erucate (22:ln9), erucate]	0.71	0.81	0.68	0.45	
CCCCCCCC/C=C\CCCCCCCCCCCCCC(=O)O [nervonate (24:ln9)*, nervonate]	0.71	1.41	0.74	0.62	
CCCCC/C=C\C/C=C\CCCCCCCC(=O)O [linoleate (18:2n6), linoleate]					serum concentration 6 wk / 0 wk [1]: 0.87; serum concentration 12 wk / 0 wk [2]: 0.93; serum concentration 18 wk / 0 wk [3]: 0.76; serum concentration 24 wk / 0 wk [4]: 0.66
CC/C=C\C/C=C\C/C=C\C/C=C\CCCCC(=O)O [stearidonate (18:4n3), stearidonate]		0.71	0.61	0.58	
CCCCC/C=C\C/C=C\C/C=C\C/C=C\CCCCCC(=O)O [adrenate (22:4n6), all-cis-7,10,13,16-docosatetraenoic acid]	1.51	2.17	2.82	1.73	
CCCCCCCCCCCCCC(=O)O [myristate (14:0), myristate]					serum concentration 6 wk / 0 wk [5]: 0.8; serum concentration 12 wk / 0 wk [5]: 0.87; serum concentration 18 wk / 0 wk [5]: 0.74; serum concentration 24 wk / 0 wk [5]: 0.58
CCCCC/C=C\C/C=C\C/C=C\C/C=C\C/C=C\CCC(=O)O [docosapentaenoate (n6 DPA; 22:5n6), all-cis-4,7,10,13,16-docosapentaenoic acid]	1.68	2.5	2.33	2.09	
eicosenoate [eicosenoate (20:1)]	0.72	0.81	0.72	0.43	
CCCCCCCCC=CCCCCCCCCC(=O)O [10-nonadecenoate (19:ln9), 10-nonadecenoate]	1.05	1.28	1.17	0.8	
CCCCCCC=CCCCC(=O)O [5-dodecenoate (12:ln7), 5-dodecenoate]	1.49	1.67	1.08	1.11	
CCCCCC(=O)O [caproate (6:0), caproate]					serum concentration 6 wk / 0 wk [5]: 0.98; serum concentration 12 wk / 0 wk [5]: 1.01; serum concentration 18 wk / 0 wk [5]: 0.92; serum concentration 24 wk / 0 wk [5]: 0.76
CC/C=C\C/C=C\C/C=C\CCCCCCCCCCCC(=O)O [docosatrienoate (22:3n3), docosatrienoate]	1.08	2.06	1.96	1.06	
CCCCCC/C=C\CCCCCCCC(=O)O [palmitoleate (16:ln7), palmitoleate]	0.85	0.99	0.76	0.54	
CCCCC/C=C\C/C=C\CCCCCCCCCCCC(=O)O [docosadienoate (22:2n6), docosadienoate]	0.85	1.08	0.99	0.54	
CC/C=C\C/C=C\C/C=C\C/C=C\C/C=C\C/C=C\CCC(=O)O [docosahexaenoate (DHA; 22:6n3), docosahexaenoate]					serum concentration 6 wk / 0 wk [5]: 1.05; serum concentration 12 wk / 0 wk [5]: 1.23; serum concentration 18 wk / 0 wk [5]: 1.06; serum concentration 24 wk / 0 wk [5]: 0.74
CCCC/C=C\CCCCCCCC(=O)O [myristoleate (14:ln5), myristoleate]	1.45	1.55	0.97	1.02	
oleate/vaccenate [oleate/vaccenate (18:1)]	0.98	1.04	0.84	0.64	
CCCCCCC=CCCCCCCCCC(=O)O [10-heptadecenoate (17:ln7), 10-heptadecenoate]	1.12	1.38	1.35	0.87	
C=CCCCCCCCCC(=O)O [10-undecenoate (1 l:ln1), 10-undecenoate]	1.41	1.54	1.22	1.75	
CCCCCCC(=O)O [heptanoate (7:0), heptanoate]					serum concentration 6 wk / 0 wk [5]: 1.42; serum concentration 12 wk / 0 wk [5]: 1.02; serum concentration 18 wk / 0 wk [5]: 1.23; serum concentration 24 wk / 0 wk [5]: 1.21
linolenate	1.13	1.1	0.97	0.98	
CCCCCCCC(=O)O [caprylate (8:0), caprylate]					serum concentration 6 wk / 0 wk [5]: 1.1; serum concentration 12 wk / 0 wk [5]: 1.07; serum concentration 18 wk / 0 wk [5]: 0.96; serum concentration 24 wk / 0 wk [5]: 1.12
CCCCC/C=C\C/C=C\CCCCCCCCCC(=O)O [dihomo-linoleate (20:2n6), dihomo-linoleate]	0.9	1.12		0.73	
CCCCCCCCCCCCCCC(=O)O [pentadecanoate (15:0), pentadecanoate]	1.01	1.27	1.42	0.97	
CCCCCCCCCCCCCCCCCCC(=O)O [nonadecanoate (19:0), nonadecanoate]	1.22	1.65	1.79	1.28	
docosapentaenoate [docosapentaenoate (n3 DPA; 22:5n3)]	1.13	1.37	1.27	0.78	
CCCCCCCCC(=O)O [perlargonate (9:0), nonanoic acid]					serum concentration 6 wk / 0 wk [1]: 1.26; serum concentration 18 wk / 0 wk [3]: 1.56; serum concentration 24 wk / 0 wk [4]: 1.41
CC/C=C\C/C=C\C/C=C\C/C=C\C/C=C\CCCC(=O)O [eicosapentaenoate (EPA; 20:5n3), eicosapentaenoate]					serum concentration 6 wk / 0 wk [1]: 0.88; serum concentration 12 wk / 0 wk [2]: 0.99; serum concentration 18 wk / 0 wk [3]: 0.88; serum concentration 24 wk / 0 wk [4]: 0.57
